In patent US12448399B2, “Cereblon-based KRAS degrading PROTACs and uses related thereto” (Arvinas Operations, Inc., priority 2023, dated 2025) one finds Dmax and DC50 data, which are given here for 13 compounds.

The target in the experiment is T1, KRas-G12D (Homo sapiens, UniProt P01116, G12D).
T1 construct: insert the HiBiT tag onto the N-terminus of one or more of the endogenous KRas alleles; host or cells: AsPC-1 HiBiT-KRasG12D knock-in clone (one tagged allele, two untagged KRasG12D alleles)
As to the kind of experiment: HiBiT Degradation Assay (G12D), AsPC-1 HiBiT-KRasG12D cells, 24 hr. In kind it is cell-based. Conditions: for Dmax: ASPC1, AsPC-1 cells, maximum degradation observed; for DC50: AsPC-1 cells. A digest of the protocol: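 AsPC-1 cells with CRISPR N-terminal HiBiT knock-in on one endogenous KRasG12D allele, treated 24 hr at 37° C with compound titrations in 0.5% DMSO. Lytic HiBiT luminescence normalized to DMSO, fitted to a 4-parameter model for DC50 and Dmax. Parallel alamar blue (4 hr) checked viability.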
(HiBiT is a short tag that completes a luciferase, so light tracks the accessible tagged protein.)

Usually Dmax stands for the greatest extent of degradation seen. One may read the DC50 as the midpoint of the concentration-degradation curve.

T1 sequence (P01116 1-188 isoform P01116-2 G12D): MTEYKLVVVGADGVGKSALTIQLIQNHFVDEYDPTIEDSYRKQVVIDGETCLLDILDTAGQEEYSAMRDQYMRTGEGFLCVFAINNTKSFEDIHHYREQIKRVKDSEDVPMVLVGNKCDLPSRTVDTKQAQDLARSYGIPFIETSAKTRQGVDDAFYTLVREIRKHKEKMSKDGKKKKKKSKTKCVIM

On to `C#Cc1c(F)ccc2cc(O)cc(-c3ncc4c(N5CC6CCC(C5)N6)nc(OCCN5CCC(F)(CN6CCN(CC7CCN(c8ccc9c(c8)n(C)c(=O)n9C8CCC(=O)NC8=O)CC7)CC6)CC5)nc4c3F)c12` (stereo not shown) [Compound 200, 3-[5-[4-[[4-[[1-[2-[4-(3,8-diazabicyclo[3.2.1]octan-3-yl)-7-(8-ethynyl-7-fluoro-3-hydroxy-1-naphthyl)-8-fluoro-pyrido[4,3-d]pyrimidin-2-yl]oxyethyl]-4-fluoro-4-piperidyl]methyl]piperazin-1-yl]methyl]-1-piperidyl]-3-methyl-2-oxo-benzimidazol-1-yl]piperidine-2,6-dione], for which the Dmax is over 70% and the half-maximal degradation concentration (DC50) is under 5.1 µM.
With `C#Cc1c(F)ccc2cc(O)cc(-c3ncc4c(N5CC6CCC(C5)N6)nc(OC[C@@H]5C[C@@H](OC6CCN(CC7CCN(c8cc(F)c9c(c8F)n(C)c(=O)n9C8CCC(=O)NC8=O)CC7)CC6)CN5C)nc4c3F)c12` (stereo partly drawn) [Compound 201, 3-(5-{4-[(4-{[(3R,5S)-5-{[(4-{3,8-diazabicyclo[3.2.1]octan-3-yl}-7-(8-ethynyl-7-fluoro-3-hydroxynaphthalen-1-yl)-8-fluoropyrido[4,3-d]pyrimidin-2-yl)oxy]methyl}-1-methylpyrrolidin-3-yl]oxy}piperidin-1-yl)methyl]piperidin-1-yl}-4,7-difluoro-3-methyl-2-oxo-2,3-dihydro-1H-1,3-benzodiazol-1-yl)piperidine-2,6-dione], the maximal degradation (Dmax) is over 70% and the 50% degradation concentration (DC50) is under 5.1 µM.
Compound `C#Cc1c(F)ccc2cc(O)cc(-c3ncc4c(N5CC6CCC(C5)N6)nc(OCCN5CCC6(CC5)CCN(CC5CCN(c7ccc8c(c7)n(C(C)C)c(=O)n8C7CCC(=O)NC7=O)CC5)CC6)nc4c3F)c12` (stereo not shown) [Compound 202, 3-(5-{4-[(9-{2-[(4-{3,8-diazabicyclo[3.2.1]octan-3-yl}-7-(8-ethynyl-7-fluoro-3-hydroxynaphthalen-1-yl)-8-fluoropyrido[4,3-d]pyrimidin-2-yl)oxy]ethyl}-3,9-diazaspiro[5.5]undecan-3-yl)methyl]piperidin-1-yl}-2-oxo-3-(propan-2-yl)-2,3-dihydro-1H-1,3-benzodiazol-1-yl)piperidine-2,6-dione] came in with a Dmax of over 70% and a DC50 of under 5.1 µM.
Turning to `C#Cc1c(F)ccc2cc(O)cc(-c3ncc4c(N5CC6CCC(C5)N6)nc(OCCN5CCC6(CC5)CCN(CC5CCN(c7ccc8c(c7F)n(C(C)C)c(=O)n8C7CCC(=O)NC7=O)CC5)CC6)nc4c3F)c12` (stereo not shown) [Compound 203, 3-[5-[4-[[9-[2-[4-(3,8-diazabicyclo[3.2.1]octan-3-yl)-7-(8-ethynyl-7-fluoro-3-hydroxy-1-naphthyl)-8-fluoro-pyrido[4,3-d]pyrimidin-2-yl]oxyethyl]-3,9-diazaspiro[5.5]undecan-3-yl]methyl]-1-piperidyl]-4-fluoro-3-isopropyl-2-oxo-benzimidazol-1-yl]piperidine-2,6-dione], the maximal degradation (Dmax) is over 70% and the half-maximal degradation concentration (DC50) is under 5.1 µM.
`C#Cc1c(F)ccc2cc(O)cc(-c3ncc4c(N5CC6CCC(C5)N6)nc(OC[C@]56CCCN5[C@H](CN5CCN(CC7CCN(c8ccc9c(c8)n(C)c(=O)n9C8CCC(=O)NC8=O)CC7)CC5)CC6)nc4c3F)c12` (stereo partly drawn) [Compound 204, 3-[5-[4-[[4-[[(3S,8R)-8-[[4-(3,8-diazabicyclo[3.2.1]octan-3-yl)-7-(8-ethynyl-7-fluoro-3-hydroxy-1-naphthyl)-8-fluoro-pyrido[4,3-d]pyrimidin-2-yl]oxymethyl]-1,2,3,5,6,7-hexahydropyrrolizin-3-yl]methyl]piperazin-1-yl]methyl]-1-piperidyl]-3-methyl-2-oxo-benzimidazol-1-yl]piperidine-2,6-dione] yielded a Dmax of over 70% and a DC50 of under 5.1 µM.
In turn, `CCc1c(F)ccc2cc(O)cc(-c3ncc4c(N5CC6CCC(C5)N6)nc(OCCN5CCC(CC6CCN(CC7CCN(c8ccc9c(c8)n(C)c(=O)n9C8CCC(=O)NC8=O)CC7)CC6)CC5)nc4c3F)c12` (stereo not shown) [Compound 205, 3-{5-[4-({4-[(1-{2-[(4-{3,8-diazabicyclo[3.2.1]octan-3-yl}-7-(8-ethyl-7-fluoro-3-hydroxynaphthalen-1-yl)-8-fluoropyrido[4,3-d]pyrimidin-2-yl)oxy]ethyl}piperidin-4-yl)methyl]piperidin-1-yl}methyl)piperidin-1-yl]-3-methyl-2-oxo-2,3-dihydro-1H-1,3-benzodiazol-1-yl}piperidine-2,6-dione] displayed a Dmax of over 70% and a DC50 of under 5.1 µM.
`C#Cc1c(F)ccc2cc(O)cc(-c3ncc4c(N5CC6CCC(C5)N6)nc(OCCN5CCC(CC6CCN(CC7CCN(c8ccc9c(c8F)n(C)c(=O)n9C8CCC(=O)NC8=O)CC7)CC6)CC5)nc4c3F)c12` (stereo not shown) [Compound 206, 3-{5-[4-({4-[(1-{2-[(4-{3,8-diazabicyclo[3.2.1]octan-3-yl}-7-(8-ethynyl-7-fluoro-3-hydroxynaphthalen-1-yl)-8-fluoropyrido[4,3-d]pyrimidin-2-yl)oxy]ethyl}piperidin-4-yl)methyl]piperidin-1-yl}methyl)piperidin-1-yl]-4-fluoro-3-methyl-2-oxo-2,3-dihydro-1H-1,3-benzodiazol-1-yl}piperidine-2,6-dione] came in with a Dmax of over 70% and a DC50 of under 5.1 µM.
Regarding `CCc1c(F)ccc2cc(O)cc(-c3ncc4c(N5CC6CCC(C5)N6)nc(OC[C@@H]5C[C@@H](OC6CCN(CC7CCN(c8ccc9c(c8)n(C)c(=O)n9C8CCC(=O)NC8=O)CC7)CC6)CN5C)nc4c3F)c12` (stereo partly drawn) [Compound 207, 3-(5-{4-[(4-{[(3R,5S)-5-{[(4-{3,8-diazabicyclo[3.2.1]octan-3-yl}-7-(8-ethyl-7-fluoro-3-hydroxynaphthalen-1-yl)-8-fluoropyrido[4,3-d]pyrimidin-2-yl)oxy]methyl}-1-methylpyrrolidin-3-yl]oxy}piperidin-1-yl)methyl]piperidin-1-yl}-3-methyl-2-oxo-2,3-dihydro-1H-1,3-benzodiazol-1-yl)piperidine-2,6-dione], the greatest degradation seen (Dmax) is over 70% and the half-maximal degradation concentration (DC50) was under 5.1 µM.
Regarding `C#Cc1c(F)ccc2cc(O)cc(-c3ncc4c(N5CC6CCC(C5)N6)nc(OC[C@]56CCCN5[C@H](CN5CCN(CC7CCN(c8ccc9c(c8)n(C(C)C)c(=O)n9C8CCC(=O)NC8=O)CC7)CC5)CC6)nc4c3F)c12` (stereo partly drawn) [Compound 208, 3-[5-[4-[[4-[[(3S,8R)-8-[[4-(3,8-diazabicyclo[3.2.1]octan-3-yl)-7-(8-ethynyl-7-fluoro-3-hydroxy-1-naphthyl)-8-fluoro-pyrido[4,3-d]pyrimidin-2-yl]oxymethyl]-1,2,3,5,6,7-hexahydropyrrolizin-3-yl]methyl]piperazin-1-yl]methyl]-1-piperidyl]-3-isopropyl-2-oxo-benzimidazol-1-yl]piperidine-2,6-dione], the greatest degradation seen (Dmax) is over 70% and the half-maximal degradation concentration (DC50) is under 5.1 µM.
In turn, `CCc1c(F)ccc2cc(O)cc(-c3ncc4c(N5CC6CCC(C5)N6)nc(OC[C@@H]5C[C@@H](OC6CCN(CC7CCN(c8ccc9c(c8)n(C(C)C)c(=O)n9C8CCC(=O)NC8=O)CC7)CC6)CN5C)nc4c3F)c12` (stereo partly drawn) [Compound 209, 3-(5-{4-[(4-{[(3R,5S)-5-{[(4-{3,8-diazabicyclo[3.2.1]octan-3-yl}-7-(8-ethyl-7-fluoro-3-hydroxynaphthalen-1-yl)-8-fluoropyrido[4,3-d]pyrimidin-2-yl)oxy]methyl}-1-methylpyrrolidin-3-yl]oxy}piperidin-1-yl)methyl]piperidin-1-yl}-2-oxo-3-(propan-2-yl)-2,3-dihydro-1H-1,3-benzodiazol-1-yl)piperidine-2,6-dione] showed a maximal degradation (Dmax) of over 70% and a 50% degradation concentration (DC50) of under 5.1 µM.
The compound `C#Cc1c(F)ccc2cc(O)cc(-c3ncc4c(N5CC6CCC(C5)N6)nc(OCC5(CN6CCC(CC7CCN(c8ccc9c(c8)n(C)c(=O)n9C8CCC(=O)NC8=O)CC7)CC6)CC5)nc4c3F)c12` (stereo not shown) [Compound 210, 3-{5-[4-({1-[(1-{[(4-{3,8-diazabicyclo[3.2.1]octan-3-yl}-7-(8-ethynyl-7-fluoro-3-hydroxynaphthalen-1-yl)-8-fluoropyrido[4,3-d]pyrimidin-2-yl)oxy]methyl}cyclopropyl)methyl]piperidin-4-yl}methyl)piperidin-1-yl]-3-methyl-2-oxo-2,3-dihydro-1H-1,3-benzodiazol-1-yl}piperidine-2,6-dione] came in with a Dmax of over 70% and a half-maximal degradation concentration (DC50) of under 5.1 µM.
On to `C#Cc1c(F)ccc2cc(O)cc(-c3ncc4c(N5CC6CCC(C5)N6)nc(OC[C@@H]5CC[C@@H](CN6CCN(CC7CCN(c8ccc9c(c8)n(C(C)C)c(=O)n9C8CCC(=O)NC8=O)CC7)CC6)N5C)nc4c3F)c12` (stereo partly drawn) [Compound 211, 3-(5-{4-[(4-{[(2S,5S)-5-{[(4-{3,8-diazabicyclo[3.2.1]octan-3-yl}-7-(8-ethynyl-7-fluoro-3-hydroxynaphthalen-1-yl)-8-fluoropyrido[4,3-d]pyrimidin-2-yl)oxy]methyl}-1-methylpyrrolidin-2-yl]methyl}piperazin-1-yl)methyl]piperidin-1-yl}-2-oxo-3-(propan-2-yl)-2,3-dihydro-1H-1,3-benzodiazol-1-yl)piperidine-2,6-dione], for which the DC50 is under 5.1 µM.
In turn, `CCc1c(F)ccc2cc(O)cc(-c3ncc4c(N5CC6CCC(C5)N6)nc(OCCN5CCC(CC6CCN(CC7CCN(c8ccc9c(c8)n(C(C)C)c(=O)n9C8CCC(=O)NC8=O)CC7)CC6)CC5)nc4c3F)c12` (stereo not shown) [Compound 212, 3-{5-[4-({4-[(1-{2-[(4-{3,8-diazabicyclo[3.2.1]octan-3-yl}-7-(8-ethyl-7-fluoro-3-hydroxynaphthalen-1-yl)-8-fluoropyrido[4,3-d]pyrimidin-2-yl)oxy]ethyl}piperidin-4-yl)methyl]piperidin-1-yl}methyl)piperidin-1-yl]-2-oxo-3-(propan-2-yl)-2,3-dihydro-1H-1,3-benzodiazol-1-yl}piperidine-2,6-dione] showed a Dmax of over 70% and a DC50 of under 5.1 µM.
